Reference: US10350210B2, “EGFR and ALK dual inhibitor” (PRECEDO PHARMACEUTICALS CO., LTD, priority 2015, dated 2019)

Experiments:
[1] = tested on: NCI-H3122; experiment: Growth of cancer cells (Cell Titer-Glo viability), NCI-H3122; format: cell-based; conditions: Homo sapiens; NCI-H3122 (expressing ALK gene), 72 hrs; read-out: GI50
[2] = tested on: BaF3-ALK-F1174L; experiment: Cell growth (Cell Titer-Glo viability), BaF3-ALK-F1174L; format: cell-based; conditions: Mus musculus; BaF3-ALK-F1174L (mutant ALK F1174L kinase), 72 hrs
Procedure, shortened: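 Mouse BaF3 cells retrovirally transduced with human kinase fused to N-terminal TEL fragment, then IL-3 withdrawn so proliferation depends on the transgene. HCC827 carries EGFR del19 and NCI-H3255 EGFR L858R. Viable cells were quantified by CellTiter-Glo chemiluminescence on a microplate reader.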

[3] = tested on: BaF3-TEL-EGFR-L858R; experiment: Cell growth (Cell Titer-Glo viability), BaF3-TEL-EGFR-L858R; format: cell-based; conditions: Mus musculus; BaF3-TEL-EGFR-L858R (EGFR L858R mutant kinase), 72 hrs
Method: By testing the effect of the novel kinase inhibitors on the proliferation of cancer cells, the selectivity of the compounds of the present disclosure in inhibiting the proliferation of cancer cells was further assessed. […]
The number of viable cells was determined quantitatively by a microplate reader using Cell Titer-Glo® (Promega, US) chemiluminescence cell viability assay kit.

[4] = tested on: non-small cell lung cancer cell H1975 subcutaneous tumors; experiment: Mouse tumor model of non-small cell lung cancer cell H1975; format: in vivo; conditions: for tumor inhibition rate: Bal b/c mice
Method: Similarly, 27 Bal b/c female mice, 4-6 weeks old, were purchased from Shanghai SLAC Laboratory Animal Co., Ltd., and maintained in an SPF laboratory. Drinking water and bedding were both sterilized by autoclaving. All operations involving the mice were performed under aseptic conditions. At day 0, 5×10^6 non-small cell lung cancer cells H1975 (purchased from ATCC) were injected subcutaneously into the left flank of all mice. At day 15, all mice were divided into three groups (9 mice per group), and the first group of mice were orally administered with methyl cellulose (HKI) solvent, the second group of mice were orally administered with Compound 1 at a dose of 25 mg/kg mouse weight, and the third group of mice were orally administered with Compound 1 at a dose of 50 mg/kg mouse weight daily. Starting from the administration, the length/width of the subcutaneous tumor was measured daily with a vernier caliper, and the weight of the mice was recorded daily to observe the effect of Compound 1 on the body weight of the mice. The mice were sacrificed at day 36 and the subcutaneous tumors were collected. The tumors were weighed, and then the tumor tissues were used to prepare protein lysates for use. The growth trend of the subcutaneous tumor within 16-36 days was plotted, wherein the tumor volume was calculated as length×width×width/2 mm^3.

Compound | GI50 [1] [nM] | GI50 [2] [nM] | GI50 [3] [nM] | tumor inhibition rate ([4]; oral daily 25 mg/kg, on the second day of administration) [%] | tumor inhibition rate ([4]; oral daily 50 mg/kg, after 8 days of administration) [%] | body weight of the mice ([4]; oral daily 25 mg/kg) | body weight of the mice ([4]; oral daily 50 mg/kg)
C=CC(=O)Nc1cc(Nc2ncc(Cl)c(Nc3ccccc3S(=O)(=O)C(C)C)n2)c(OC)cc1N1CCCN(C)CC1 [Compound 10, N-(5-(5-chloro-4-(2-(isopropylsulfonyl)phenylamino)pyrimidin-2-ylamino)-4-methoxy-2-(4-methyl-1,4-homopiperazin-1-yl)phenyl)acrylamide] | < 0.3 | 1500 | – | – | – | – | –
C=CC(=O)Nc1cc(Nc2ncc(Cl)c(Nc3ccccc3S(=O)(=O)C(C)C)n2)c(OC)cc1N1CCN(CC)CC1 [Compound 1, N-(5-(5-chloro-4-(2-(isopropylsulfonyl)phenylamino)pyrimidin-2-ylamino)-2-(4-ethylpiperazin-1-yl)-4-methoxyphenyl)acrylamide] | – | – | < 3 | 70 | 81.7 | did not decrease | did not decrease
